Experiments:
Melanocortin receptor 3 = Melanocortin receptor 3 (Homo sapiens, UniProt P41968); assay: Displacement of [125I]NDP-MSH from human recombinant MC3 receptor expressed in Sf9 cells
Melanocortin receptor 4 = Melanocortin receptor 4 (Homo sapiens, UniProt P32245); assay: Displacement of [125I]NDP-MSH from human recombinant MC4 receptor expressed in Sf9 cells
Melanocortin receptor 5 = Melanocortin receptor 5 (Homo sapiens, UniProt P33032); assay: Displacement of [125I]NDP-MSH from human recombinant MC5 receptor expressed in Sf9 cells
Sequence of Melanocortin receptor 5 (P33032 whole entry): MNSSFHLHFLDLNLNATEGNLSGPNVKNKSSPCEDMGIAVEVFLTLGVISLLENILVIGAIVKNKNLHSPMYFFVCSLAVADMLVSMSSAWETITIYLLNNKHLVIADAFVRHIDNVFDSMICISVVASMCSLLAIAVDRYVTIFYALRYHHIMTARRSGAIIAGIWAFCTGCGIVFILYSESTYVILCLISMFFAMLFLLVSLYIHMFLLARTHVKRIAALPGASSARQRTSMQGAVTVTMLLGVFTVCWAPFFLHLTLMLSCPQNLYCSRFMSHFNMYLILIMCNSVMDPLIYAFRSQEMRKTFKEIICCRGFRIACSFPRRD

[1] = biological target: Melanocyte-stimulating hormone receptor (Mus musculus, UniProt Q01727); assay: Displacement of [125I]NDP-MSH from MC1 receptor in mouse B16 cells; assay type: cell-based
Sequence of Melanocyte-stimulating hormone receptor (Q01727 whole entry): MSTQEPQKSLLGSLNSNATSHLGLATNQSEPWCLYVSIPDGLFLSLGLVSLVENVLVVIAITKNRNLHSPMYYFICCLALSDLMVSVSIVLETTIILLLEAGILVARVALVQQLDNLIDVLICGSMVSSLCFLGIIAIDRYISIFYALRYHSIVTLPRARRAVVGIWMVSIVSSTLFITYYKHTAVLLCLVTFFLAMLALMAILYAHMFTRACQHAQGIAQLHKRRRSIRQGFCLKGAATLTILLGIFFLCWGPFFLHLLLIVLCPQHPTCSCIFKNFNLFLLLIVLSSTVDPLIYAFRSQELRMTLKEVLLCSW

Sequence of Melanocortin receptor 3 (P41968 whole entry): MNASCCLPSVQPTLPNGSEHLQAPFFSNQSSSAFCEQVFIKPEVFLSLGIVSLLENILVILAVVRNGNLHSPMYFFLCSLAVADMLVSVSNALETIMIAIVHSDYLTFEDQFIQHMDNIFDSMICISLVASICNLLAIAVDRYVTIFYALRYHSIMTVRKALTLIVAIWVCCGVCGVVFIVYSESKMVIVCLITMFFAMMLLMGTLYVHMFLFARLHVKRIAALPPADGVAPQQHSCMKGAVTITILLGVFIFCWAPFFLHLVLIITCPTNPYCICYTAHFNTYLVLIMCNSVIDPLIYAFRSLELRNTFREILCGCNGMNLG
Sequence of Melanocortin receptor 4 (P32245 whole entry): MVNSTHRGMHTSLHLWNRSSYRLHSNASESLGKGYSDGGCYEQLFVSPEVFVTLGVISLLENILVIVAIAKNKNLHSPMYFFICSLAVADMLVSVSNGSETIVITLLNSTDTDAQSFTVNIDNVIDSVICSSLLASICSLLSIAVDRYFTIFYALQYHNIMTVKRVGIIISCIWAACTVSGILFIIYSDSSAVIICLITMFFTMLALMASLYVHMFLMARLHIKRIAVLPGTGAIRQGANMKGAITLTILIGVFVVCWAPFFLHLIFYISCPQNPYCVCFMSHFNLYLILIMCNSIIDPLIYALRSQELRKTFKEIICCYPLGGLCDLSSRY

Ki (Melanocortin receptor 3) | Ki (Melanocortin receptor 4) | Ki (Melanocortin receptor 5) | Ki [1] | SMILES
23 µM | 1.9 µM | 15 µM | 1.1 µM | NC1CCC(CC2CCC(N(Cc3c(F)cccc3Cl)C(=O)CCCc3c(Cc4ccc(O)cc4)[nH]c4ccccc34)CC2)CC1 (stereo not drawn)
25 µM | 2.6 µM | 7.2 µM | 2.5 µM | NC1CCC(CC2CCC(N(Cc3c(Cl)cccc3Cl)C(=O)CCCc3c[nH]c4ccccc34)CC2)CC1 (stereo not drawn)
22 µM | 2.8 µM | 5.2 µM | 3.2 µM | NC1CCC(CC2CCC(N(Cc3ccccc3Cl)C(=O)CCCc3c[nH]c4ccccc34)CC2)CC1 (stereo not drawn)
16 µM | 9.2 µM | 7.7 µM | 2.7 µM | NC1CCC(CC2CCC(N(C/C=C/c3ccccc3)C(=O)CCCc3c[nH]c4ccccc34)CC2)CC1 (stereo not drawn)
25 µM | 6.5 µM | 23 µM | 2.9 µM | NC1CCCC(NC(=O)NC2CCCC(N(Cc3ccccc3)C(=O)CCCc3c(Cc4ccc(O)cc4)[nH]c4ccccc34)C2)C1 (stereo not drawn)
172 µM | 5.6 µM | 96 µM | 6.3 µM | NC1CCC(CC2CCC(N(Cc3ccncc3)C(=O)CCCc3c[nH]c4ccccc34)CC2)CC1 (stereo in doubt; form 2)
23 µM | 38 µM | 37 µM | 3.5 µM | N=C(N)NC1CCC(CC2CCC(N(C/C=C/c3ccccc3)C(=O)CCCc3c[nH]c4ccccc34)CC2)CC1 (stereo not drawn)
45 µM | 6.8 µM | 8.4 µM | 3.1 µM | N[C@H]1CC[C@H](C[C@H]2CC[C@H](N(C/C(Cl)=C/c3ccccc3)C(=O)CCCc3c[nH]c4ccccc34)CC2)CC1
33 µM | 2.5 µM | 11 µM | 1.6 µM | NCC1CCC(CN(C/C(Cl)=C/c2ccccc2)C(=O)CCCc2c[nH]c3ccccc23)CC1 (stereo not drawn)
46 µM | 2.7 µM | 6.7 µM | 4.3 µM | COC(=O)c1ccc(CN(C(=O)CCCc2c(Cc3ccc(O)cc3)[nH]c3ccccc23)C2CCC(CC3CCC(N)CC3)CC2)cc1 (stereo not drawn)
37 µM | 6.4 µM | 7.6 µM | 2.9 µM | COc1cc(O)ccc1/C=C/CN(C(=O)CCCc1c[nH]c2ccccc12)C1CCC(CC2CCC(N)CC2)CC1 (stereo in doubt; form 1)
47 µM | 5 µM | 5.1 µM | 2 µM | NCCCCCN(Cc1ccccc1)C(=O)CCCc1c(Cc2ccc(O)cc2)[nH]c2ccccc12
52 µM | 3 µM | 83 µM | 1.8 µM | NC1CCC(CC2CCC(N(Cc3c(F)cccc3F)C(=O)CCCc3c[nH]c4ccccc34)CC2)CC1 (stereo not drawn)
27 µM | 4.4 µM | 18 µM | 2.5 µM | NCC1CCC(CN(Cc2ccccc2)C(=O)CCCc2c[nH]c3ccccc23)CC1 (stereo not drawn)
19 µM | 3.4 µM | 2.6 µM | 1.5 µM | N=C(N)NC1CCC(CC2CCC(N(Cc3ccccc3)C(=O)CCCc3c[nH]c4ccccc34)CC2)CC1 (stereo not drawn)
55 µM | 1.5 µM | 36 µM | 1 µM | NC1CCC(CC2CCC(N(Cc3ccccc3F)C(=O)CCCc3c(Cc4ccc(O)cc4)[nH]c4ccccc34)CC2)CC1 (stereo not drawn)
78 µM | 3.4 µM | 16 µM | 2.9 µM | Cc1cccc(CN(C(=O)CCCc2c(Cc3ccc(O)cc3)[nH]c3ccccc23)C2CCC(CC3CCC(N)CC3)CC2)c1 (stereo not drawn)
31 µM | 11 µM | 52 µM | 1.8 µM | NC1CCCC(NC(=O)N[C@H]2CC[C@H](N(Cc3ccccc3)C(=O)CCCc3c[nH]c4ccccc34)CC2)C1 (stereo partly drawn)
17 µM | 4.9 µM | 7.5 µM | 1.5 µM | COc1ccccc1/C=C/CN(C(=O)CCCc1c[nH]c2ccccc12)C1CCC(CC2CCC(N)CC2)CC1 (stereo in doubt; form 1)
4.3 µM | 1.2 µM | 1.7 µM | 0.69 µM | CC1CC(CC2CCC(N(Cc3ccccc3)C(=O)CCCc3c[nH]c4ccccc34)C(C)C2)CCC1N (stereo in doubt; form 1)
6.6 µM | 3.7 µM | 6.9 µM | 1.7 µM | CC1CC(CC2CCC(N(Cc3ccccc3)C(=O)CCCc3c[nH]c4ccccc34)C(C)C2)CCC1N (stereo in doubt; form 3)
21 µM | 3.3 µM | 7.8 µM | 1 µM | C=C(Br)CN(C(=O)CCCc1c[nH]c2ccccc12)C1CCC(CC2CCC(N)CC2)CC1 (stereo in doubt; form 3)
62 µM | 3.7 µM | 42 µM | 1.6 µM | NC1CCC(CC2CCC(N(C/C(Cl)=C/c3ccccc3)C(=O)COc3ccc4ccccc4c3)CC2)CC1 (stereo in doubt; form 8)
22 µM | 3.7 µM | 8.3 µM | 3.2 µM | COc1ccc(CN(C(=O)CCCc2c[nH]c3ccccc23)C2CCC(CC3CCC(N)CC3)CC2)cc1OC (stereo not drawn)
17 µM | 2 µM | 8.7 µM | 0.96 µM | NC1CCC(CC2CCC(N(C/C(Cl)=C/c3ccccc3)C(=O)CCCc3c[nH]c4ccccc34)CC2)CC1 (stereo in doubt; form 2)
29 µM | 5.5 µM | 9.4 µM | 1.4 µM | C=C(Br)CN(C(=O)CCCc1c[nH]c2ccccc12)C1CCC(CC2CCC(N)CC2)CC1 (stereo in doubt; form 2)
19 µM | 3.2 µM | 4.9 µM | 1.2 µM | C=C(Br)CN(C(=O)CCCc1c[nH]c2ccccc12)C1CCC(CC2CCC(N)CC2)CC1 (stereo in doubt; form 1)

Continued, compound first:

SMILES | Ki (Melanocortin receptor 3) | Ki (Melanocortin receptor 4) | Ki (Melanocortin receptor 5) | Ki [1]
CC(c1ccc(C(F)(F)F)cc1)N(CCCCCN)C(=O)Cc1c[nH]c2ccccc12 (stereo not drawn) | 12 µM | 16 µM | 11 µM | 2.6 µM
NC(N)=NCCCCN(Cc1ccc2ccccc2c1)C(=O)CCc1c[nH]c2ccccc12 | 50 µM | 116 µM | 21 µM | 12 µM
NCCCN(C/C(Cl)=C/c1ccccc1)C(=O)CCCc1c[nH]c2ccccc12 | 18 µM | 7 µM | 31 µM | 6.1 µM
NCCN(C(=O)CCCc1c[nH]c2ccccc12)C1CCC2(CCCCC2)CC1 | 2.7 µM | 10 µM | 12 µM | 3.2 µM
NCCCCCN(CCc1ccc2ccccc2c1)C(=O)Cc1c[nH]c2ccccc12 | 13 µM | 9.4 µM | 8 µM | 4.5 µM
N=C(N)NCCN(Cc1ccc2ccccc2c1)C(=O)CCCc1c[nH]c2ccccc12 | 204 µM | 179 µM | 8.3 µM | 8.3 µM
NCCCCN(C/C(Cl)=C/c1ccccc1)C(=O)CCCc1c[nH]c2ccccc12 | 32 µM | 5.4 µM | 85 µM | 2.4 µM
NCCCCCN(C(=O)CCCc1c[nH]c2ccccc12)C1C2CC3CC(C2)CC1C3 (stereo not drawn) | 25 µM | 14 µM | 46 µM | 6.1 µM
CCCCCN(Cc1ccc(N(CC)CC)cc1)C(=O)CCCc1c[nH]c2ccccc12 | 289 µM | 78 µM | 408 µM | 72 µM
NCCCN(CCCc1ccccc1)C(=O)Cc1c[nH]c2ccccc12 | 5.7 µM | 32 µM | 13 µM | 5 µM
NCCN(C/C=C/c1ccccc1)C(=O)CCc1c[nH]c2ccccc12 | 51 µM | 106 µM | 13 µM | 17 µM
N=C(N)NCCCCN(Cc1ccc2ccccc2c1)C(=O)Cc1c[nH]c2ccccc12 | 137 µM | 182 µM | 16 µM | 17 µM
NCCCCCN(C/C(Cl)=C\c1ccccc1)C(=O)/C=C/c1c[nH]c2ccccc12 | 27 µM | 59 µM | 5.4 µM | 2.7 µM
NCc1cccc(CN(Cc2ccc3ccccc3c2)C(=O)CCCc2c[nH]c3ccccc23)c1 | 17 µM | 7.7 µM | 6.4 µM | 1.5 µM
C/C(=C\c1ccccc1)CN(CCCCCCN)C(=O)c1cc2cc(O)ccc2[nH]1 | 27 µM | 11 µM | 20 µM | 3.7 µM
NCC1CCCC(CN(C/C(Cl)=C/c2ccccc2)C(=O)CCCc2c[nH]c3ccccc23)C1 (stereo not drawn) | 25 µM | 3.7 µM | 9.1 µM | 1.5 µM
C/C(=C\c1ccccc1)CN(CCCN)C(=O)c1c[nH]c2ccccc12 | 24 µM | 7.4 µM | 0.93 µM | 0.85 µM
NCCCCCCCN(Cc1ccccc1)C(=O)CCCc1c[nH]c2ccccc12 | 28 µM | 3.8 µM | 3.2 µM | 4 µM
NCCN(C(=O)COc1ccc2ccccc2c1)C1CCC2(CCCCC2)CC1 | 2.1 µM | 4.9 µM | 3.4 µM | 6 µM
NCCN(C(=O)[C@H](N)Cc1ccc(Cl)cc1)C1CCC2(CCCCC2)CC1 | 1.7 µM | 2.4 µM | 3.2 µM | 3.7 µM
C/C(=C\c1ccccc1)CN(CCCN)C(=O)C(=O)c1c[nH]c2ccccc12 | 9.1 µM | 6.2 µM | 58 µM | 1.8 µM
N=C(N)NCCN(Cc1ccc2ccccc2c1)C(=O)Cc1c[nH]c2ccccc12 | 57 µM | 179 µM | 15 µM | 19 µM
COc1ccc2c(c1)c(CC(=O)N(CCCCN)C/C(C)=C/c1ccccc1)c(C)n2C(=O)c1ccc(Cl)cc1 | 30 µM | 7.1 µM | 56 µM | 1.8 µM
C/C(=C\c1ccccc1)CN(CCCN)C(=O)CCCc1cccs1 | 63 µM | 14 µM | 91 µM | 6.8 µM
CC(Cc1ccccc1)CN(CCCCCCN)C(=O)c1cc2cc(O)ccc2[nH]1 (stereo not drawn) | 46 µM | 9.8 µM | 31 µM | 2.9 µM

Reference: ChEMBL document CHEMBL1149662, “Design and synthesis of a library of tertiary amides: evaluation as mimetics of the melanocortins' active core” (Bioorg Med Chem, 2007)
